From patent US20220040335A1, “RADIOLABELED PABA AND DERIVATIVES THEREOF FOR USE AS FUNCTIONAL RENAL IMAGING AGENTS” (priority 2018, published 2022)
“Also recorded” adds a separate entry of the source.

Assay: Dynamic PET/CT renal imaging (renogram) after intravenous injection in healthy rats
Type: in vivo, Wistar rats
Procedure: Methods for renal imaging: ^11C-PABA was synthesized using cGMP conditions at the JHU PET Center. Four female healthy Wistar rats (250-275 g of bodyweight) were injected with 30.5±10.3 MBq of ^11C-PABA through a tail-vein catheter and a dynamic PET scan was performed (15 frames×20 seconds, 5 frames×1 minute, 10 frames×5 minutes, total of 60 minutes) using the nanoScan PET/CT (Mediso). Subsequently, CT imaging was performed for anatomical co-registration. As a control, the same rats were also injected intravenously with 18.5 MBq of ^99mTc-MAG3 (Cardinal Health) and scanned using planar scintigraphy with the nanoSPECT/CT (Nanoscan). The images were analyzed with VivoQuant 3.0 (Invicro) and regions of interest were drawn using the CT as reference.

[1] = representative healthy rat, FIG. 3

Nc1ccc([11C](=O)O)cc1 [^11C-PABA, [Carboxy-11C] 4-Aminobenzoic acid]
time after injection at which PET/CT signal localized in the right kidney (FIG. 4A): 220 to 240 s | signal in the kidneys compared to liver and spleen (at time-to-peak, healthy rats, FIG. 3): 30-40 × | renal clearance / excretion from kidneys (in words) (dynamic PET after IV injection, healthy rats, FIG. 2): rapid excretion; also recorded: rapid renal clearance; also recorded: rapidly localized in the kidneys | background accumulation of the tracer in other organs (in words) (dynamic PET, healthy rats): very low background accumulation | time-to-peak in time-activity curves (kidneys, dynamic PET after IV injection of 30.5±10.3 MBq, healthy female Wistar rats): 9.5 ± 1.4 min | cortical phase of renogram [1]: 4.7 to 10 min | vascular phase of renogram [1]: 0 to 4.7 min
